Reference: article PMC12384225, “Piezo1 Channel Activators Yoda1 and Yoda2 in the Context of Red Blood Cells” (Biomolecules, 2025)

Assays:
Piezo1 channel = target: T1, Piezo1 channel (Homo sapiens, UniProt Q92508); experiment: Automated whole-cell patch clamp (SyncroPatch 384) of Piezo1-mediated currents in RBCs; type: cell-based; conditions: for responding cells out of total valid cells / responding cells out of total valid cells (any concentration) / concentration at which the response plateaus: +80 mV; for responding cells out of total valid cells (any concentration): current > baseline + 3σ at any concentration, N = 3; for EC50: human RBCs, responders only, current at +80 mV normalised to baseline, cumulative concentrations, Hill fit, room temperature; for concentration at which the response plateaus: normalised concentration-response curves
T1 construct: endogenous in cells; host or cells: human red blood cells (RBCs) from donor blood
Protocol: Whole-cell patch clamp recordings were performed using the SyncroPatch 384 (Nanion Technologies, Munich, Germany) as previously described. Experiments were conducted at room temperature using NPC-384 single-hole microchips with resistances ranging from 6 to 10 MΩ. Recording solutions contained (in mM) 110 KF, 10 KCl, 10 NaCl, 10 EGTA, and 10 HEPES, pH 7.2 (KOH) (internal); and 140 NaCl, 4 KCl, 2 CaCl2, 1 MgCl2, 5 D-glucose monohydrate, and 10 HEPES, pH 7.4 (NaOH) (external). Data acquisition was conducted using PatchControl384 v3.2.2 (Nanion Technologies, Munich, Germany), sampled at 10 kHz.
Piezo1-mediated currents were elicited using a voltage ramp protocol ranging from −100 mV to +80 mV over 450 ms, applied every 10 s, with a holding potential set at −30 mV. After establishing a stable baseline current in the external solution, cells were exposed to increasing concentrations of either Yoda1 or Yoda2 (Tocris Bioscience, Bristol, UK) in a cumulative manner: 41 nM, 144 nM, 442 nM, 1.33 μM, 4 μM, and 8 μM. To block channel activity, 30 μM GdCl3 (Sigma-Aldrich, Merck KGaA, Taufkirchen, Germany, a non-selective ion channel inhibitor, was subsequently applied.
RBCs were classified as responders if the mean current amplitude in the presence of the compound exceeded the mean current at baseline conditions by more than three times the standard deviation of the baseline (3σ). For EC50 determination, current amplitudes at each concentration were normalised to the baseline current, and dose–response curves were fitted using the Hill equation.

[1] = test system: free Ca^2+ in healthy red blood cells (RBCs); experiment: Intracellular Ca2+ by Fluo-4 flow cytometry in RBCs; type: cell-based, human; conditions: for EC50: maximum average Fluo-4 intensity of all RBCs during recording, Hill fit, flow cytometry, read-out: EC50 (Ca^2+ Measurements)
Protocol: Experiments for the intracellular Ca^2+ detection of RBCs were performed in Tyrode solution containing (in mM) 130 NaCl, 5 KCl, 5 glucose, 10 HEPES, 1 MgCl2, and 1.5 CaCl2. The pH was adjusted to 7.40 with NaOH. All salts were of analytical grade. The cells were loaded with Fluo-4 AM (Molecular Probes, Eugene, OR, USA) at a concentration of 5 μM for 1 hour at 37 °C. Then, the cells were washed three times with Tyrode solution.
Flow cytometry measurements were performed on LSRFortessa (Becton Dickinson, Franklin Lakes, NJ, USA). Washed RBCs from 50 μL of blood were loaded with Fluo-4 as previously described and washed again. For flow cytometry analysis, 10 μL of cell suspension was added to 700 μL of designed buffer and transferred to 5 mL round-bottom polystyrene test tubes (Corning Inc., Corning, NY, USA). For each sample, data recording started 1 minute after the cells were in the designed buffer for 10 minutes. The results were assessed using FlowJo (Becton Dickinson, Franklin Lakes, NJ, USA).

[2] = test system: membrane potential of RBCs (Gárdos channel activity); experiment: Membrane potential measurement (MBE method), hyperpolarisation by Gárdos channel activity; type: cell-based, human; conditions: magnitude of membrane hyperpolarisation ΔVm, Hill fit
Protocol: The membrane potential of RBCs was measured using a method originally described by Macey et al., subsequently refined by Poul Bennekou, e.g., [27], and later optimised by the group of Stéphane Egée, e.g., [28]. As such, the method is referred to as the MBE method after the three scientists who most contributed to it. For each experiment, a 2 mL microcentrifuge tube was prepared with 1 mL of Ringer solution containing (in mM) 153 NaCl, 2 KCl, and 4 CaCl2. All reagents were of analytical grade and dissolved in Milli-Q water. Protonophore carbonyl cyanide m-chlorophenyl hydrazone (CCCP) was added at a final concentration of 26 µM to increase the hydrogen permeability of membranes. The tube was placed in a 36 °C water bath, and a magnetic stir bar was added to ensure continuous mixing. A calibrated pH electrode (InLab Expert Pro pH electrode, Mettler-Toledo GmbH, Greifensee, Switzerland) was immersed in the solution to monitor pH changes in real time, with data acquisition and recording performed via software on a connected computer. […] The system was monitored for an additional 5 minutes to observe the effects of the compound on the RBCs. […]
The membrane potential (Vm) was calculated from the recorded pH data using the following equation:Vm [mV] = −61.5 × (pHval − pHlys), where pHval is the pH value measured at a specific time point, and pHlys is the final pH value obtained after cell lysis.

[3] = test system: free Ca^2+ in healthy red blood cells (RBCs); parameters: method as in PMID 29259557, PMID 33208899; conditions: cited from earlier work
[4] = test system: membrane potential of RBCs (Gárdos channel activity); parameters: method as in PMID 37492641; conditions: RBCs pretreated with the inhibitor; cited from earlier work

T1 sequence (Q92508 whole entry): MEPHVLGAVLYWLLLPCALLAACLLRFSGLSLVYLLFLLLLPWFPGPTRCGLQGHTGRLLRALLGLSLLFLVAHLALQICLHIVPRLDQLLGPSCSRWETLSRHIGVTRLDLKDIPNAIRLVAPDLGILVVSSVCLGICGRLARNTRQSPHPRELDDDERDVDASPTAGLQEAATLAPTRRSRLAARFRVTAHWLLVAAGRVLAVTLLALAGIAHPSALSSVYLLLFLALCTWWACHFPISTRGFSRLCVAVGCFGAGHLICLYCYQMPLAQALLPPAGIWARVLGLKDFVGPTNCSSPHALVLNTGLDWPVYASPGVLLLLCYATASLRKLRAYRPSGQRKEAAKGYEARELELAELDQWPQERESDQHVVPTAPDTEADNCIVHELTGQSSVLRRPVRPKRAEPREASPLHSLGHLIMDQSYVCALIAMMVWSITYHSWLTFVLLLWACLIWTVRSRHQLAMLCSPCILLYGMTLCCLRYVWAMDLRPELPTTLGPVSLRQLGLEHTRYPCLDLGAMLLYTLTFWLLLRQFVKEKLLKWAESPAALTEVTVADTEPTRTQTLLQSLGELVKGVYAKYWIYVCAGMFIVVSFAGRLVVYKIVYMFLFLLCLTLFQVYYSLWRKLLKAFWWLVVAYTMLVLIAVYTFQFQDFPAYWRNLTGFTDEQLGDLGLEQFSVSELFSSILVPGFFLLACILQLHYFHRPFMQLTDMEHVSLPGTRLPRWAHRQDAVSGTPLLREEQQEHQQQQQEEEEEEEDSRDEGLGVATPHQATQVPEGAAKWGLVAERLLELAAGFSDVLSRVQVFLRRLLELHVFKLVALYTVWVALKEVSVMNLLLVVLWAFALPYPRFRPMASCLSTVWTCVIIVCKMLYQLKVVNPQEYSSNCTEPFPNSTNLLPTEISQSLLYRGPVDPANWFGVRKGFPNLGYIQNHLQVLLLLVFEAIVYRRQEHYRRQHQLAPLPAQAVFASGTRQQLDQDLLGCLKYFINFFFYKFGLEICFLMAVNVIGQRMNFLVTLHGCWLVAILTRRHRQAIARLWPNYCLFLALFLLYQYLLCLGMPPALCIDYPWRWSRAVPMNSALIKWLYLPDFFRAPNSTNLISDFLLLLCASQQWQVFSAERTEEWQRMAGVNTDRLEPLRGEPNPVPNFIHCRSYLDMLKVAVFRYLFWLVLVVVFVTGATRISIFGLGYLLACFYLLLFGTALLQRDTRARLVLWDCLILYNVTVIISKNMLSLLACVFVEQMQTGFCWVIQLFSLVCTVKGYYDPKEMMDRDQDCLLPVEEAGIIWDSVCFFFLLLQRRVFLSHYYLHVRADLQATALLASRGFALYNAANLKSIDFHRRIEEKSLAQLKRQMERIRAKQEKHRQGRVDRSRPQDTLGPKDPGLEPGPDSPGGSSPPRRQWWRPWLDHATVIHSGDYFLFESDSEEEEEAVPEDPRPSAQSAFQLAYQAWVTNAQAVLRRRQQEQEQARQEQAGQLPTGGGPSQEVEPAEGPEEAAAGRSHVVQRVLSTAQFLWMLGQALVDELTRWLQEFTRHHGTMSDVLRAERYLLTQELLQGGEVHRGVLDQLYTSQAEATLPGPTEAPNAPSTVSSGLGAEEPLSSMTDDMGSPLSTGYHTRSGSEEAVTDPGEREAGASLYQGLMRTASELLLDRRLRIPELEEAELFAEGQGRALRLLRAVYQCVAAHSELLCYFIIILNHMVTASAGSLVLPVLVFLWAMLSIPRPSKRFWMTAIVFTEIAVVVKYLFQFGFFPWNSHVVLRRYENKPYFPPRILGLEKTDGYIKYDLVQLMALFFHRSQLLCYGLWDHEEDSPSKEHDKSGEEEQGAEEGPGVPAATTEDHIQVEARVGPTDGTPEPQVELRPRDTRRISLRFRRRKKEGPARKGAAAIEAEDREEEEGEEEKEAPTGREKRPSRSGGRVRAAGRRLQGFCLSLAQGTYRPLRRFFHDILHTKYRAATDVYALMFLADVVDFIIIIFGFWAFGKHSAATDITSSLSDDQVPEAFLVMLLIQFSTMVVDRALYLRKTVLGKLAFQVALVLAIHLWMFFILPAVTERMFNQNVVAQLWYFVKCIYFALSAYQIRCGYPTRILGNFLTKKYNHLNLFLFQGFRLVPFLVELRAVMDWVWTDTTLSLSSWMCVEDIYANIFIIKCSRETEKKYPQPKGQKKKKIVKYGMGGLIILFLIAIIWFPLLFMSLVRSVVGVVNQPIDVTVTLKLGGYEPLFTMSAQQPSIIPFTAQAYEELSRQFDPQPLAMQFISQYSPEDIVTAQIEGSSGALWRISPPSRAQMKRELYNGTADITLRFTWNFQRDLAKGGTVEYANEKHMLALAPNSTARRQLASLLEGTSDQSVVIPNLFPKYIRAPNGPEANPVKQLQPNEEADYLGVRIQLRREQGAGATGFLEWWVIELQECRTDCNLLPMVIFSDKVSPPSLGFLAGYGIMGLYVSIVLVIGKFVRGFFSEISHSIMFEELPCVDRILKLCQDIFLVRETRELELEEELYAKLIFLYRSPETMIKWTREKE

Molecule | block of Piezo1 channel activity (Piezo1 channel; 30 μM, applied after cumulative Yoda1 or Yoda2) | responding cells out of total valid cells (Piezo1 channel; 41 nM) | responding cells out of total valid cells (Piezo1 channel; 144 nM) | responding cells out of total valid cells (Piezo1 channel; 442 nM) | responding cells out of total valid cells (Piezo1 channel; 1330 nM) | responding cells out of total valid cells (Piezo1 channel; 4000 nM) | responding cells out of total valid cells (Piezo1 channel; 8000 nM) | responding cells out of total valid cells (any concentration) (Piezo1 channel) | EC50 (Piezo1 channel) | concentration at which the response plateaus (Piezo1 channel) | Fluo-4 (Ca^2+) response of RBCs ([1]; 40 nM) | EC50 [1] | EC50 [2] | Fluo-4 (Ca^2+) response of RBCs ([1]; 80 nM) | inhibition of increased Ca^2+ induced by Yoda1 or mechanical stress [3] | inhibition of hyperpolarisation [4]
[Cl][Gd]([Cl])[Cl] [GdCl3] | block Piezo1 channel activity completely | – | – | – | – | – | – | – | – | – | – | – | – | – | – | –
Clc1cccc(Cl)c1CSc1nnc(-c2cnccn2)s1 [Yoda1] | – | 2/172 | 9/172 | 16/172 | 26/172 | 30/172 | 35/172 | 35/172 | 1390 nM | did not plateau | no obvious response | 1180 nM | 305 nM | – | – | –
O=C(O)c1ccc(-c2nnc(SCc3c(Cl)cccc3Cl)s2)cc1 [Yoda2] | – | 3/171 | 12/171 | 24/171 | 30/171 | 30/171 | 31/171 | 35/171 | 305 nM | around 4 μM | – | 986 nM | 465 nM | no obvious response | – | –
GsMTx4 | – | – | – | – | – | – | – | – | – | – | – | – | – | – | significantly inhibited | largely inhibited
